Calls of active or inactive are those of the source. The calls are words filed in the database; no cut-off is given here.
Legend:
[1] = biological target: T1, Amine oxidase [flavin-containing] B (Homo sapiens, UniProt P27338); assay: Inhibition of human recombinant MAO-B using tyramine as substrate incubated for 20 mins by fluorometric assay
T1 sequence (P27338 whole entry): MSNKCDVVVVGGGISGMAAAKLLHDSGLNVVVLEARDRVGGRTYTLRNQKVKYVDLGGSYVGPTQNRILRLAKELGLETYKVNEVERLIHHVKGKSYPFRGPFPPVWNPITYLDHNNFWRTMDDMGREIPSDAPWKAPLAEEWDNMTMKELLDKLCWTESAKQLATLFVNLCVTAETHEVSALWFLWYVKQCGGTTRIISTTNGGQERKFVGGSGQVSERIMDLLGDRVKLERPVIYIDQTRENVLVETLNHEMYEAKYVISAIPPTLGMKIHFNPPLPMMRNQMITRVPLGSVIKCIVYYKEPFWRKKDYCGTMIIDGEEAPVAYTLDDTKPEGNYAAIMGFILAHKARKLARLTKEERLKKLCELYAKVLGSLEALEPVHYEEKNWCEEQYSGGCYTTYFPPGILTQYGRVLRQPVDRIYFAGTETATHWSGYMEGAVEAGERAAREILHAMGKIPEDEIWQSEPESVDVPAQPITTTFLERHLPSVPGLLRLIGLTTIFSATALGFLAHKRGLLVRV

[2] = biological target: T2, Amine oxidase [flavin-containing] A (Homo sapiens, UniProt P21397); assay: Inhibition of human recombinant MAO-A using tyramine as substrate incubated for 20 mins by fluorometric assay
T2 sequence (P21397 whole entry): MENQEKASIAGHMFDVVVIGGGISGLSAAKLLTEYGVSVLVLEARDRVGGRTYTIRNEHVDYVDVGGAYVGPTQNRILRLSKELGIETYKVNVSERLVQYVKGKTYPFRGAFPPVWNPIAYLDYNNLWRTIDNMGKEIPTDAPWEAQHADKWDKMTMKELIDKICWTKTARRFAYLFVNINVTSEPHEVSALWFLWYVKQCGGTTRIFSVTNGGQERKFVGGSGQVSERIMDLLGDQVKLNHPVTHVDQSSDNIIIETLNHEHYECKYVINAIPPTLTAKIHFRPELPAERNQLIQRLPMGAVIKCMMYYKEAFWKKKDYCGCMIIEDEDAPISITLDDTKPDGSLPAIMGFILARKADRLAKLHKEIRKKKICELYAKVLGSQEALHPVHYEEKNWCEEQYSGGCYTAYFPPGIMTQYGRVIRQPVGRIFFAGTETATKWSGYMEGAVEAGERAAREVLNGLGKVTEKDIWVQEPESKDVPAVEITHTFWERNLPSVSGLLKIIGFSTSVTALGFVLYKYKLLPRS

[3] = n-Octanol/water partition coefficient, logP of the compound at pH 7.4 by HPLC analysis; assay type: physicochemical
MCF7 = assay: Antiproliferative activity against human MCF7 cells assessed as reduction in cell viability incubated for 24 hrs by MTT assay; assay type: functional, cell-based; details: MCF7, 24 h
SH-SY5Y [4] = assay: Cytotoxicity against differentiated human SH-SY5Y cells assessed as reduction in cell viability by measuring MTT reduction at 4 uM incubated for 24 hrs by MTT assay relative to control; assay type: toxicity, cell-based
VSMC [5] = assay: Cytotoxicity against differentiated human VSMC cells assessed as reduction in cell viability at 0.5 to 4 uM incubated for 24 hrs by MTT assay; assay type: toxicity, cell-based; details: dose 0.5-4 µM
HepG2 [6] = assay: Antiproliferative activity against human HepG2 cells assessed as reduction in cell viability at 0.5 to 128 uM incubated for 24 hrs by MTT assay; assay type: functional, cell-based; details: dose 0.5-128 µM
MGC-803 [7] = assay: Antiproliferative activity against human MGC-803 cells assessed as reduction in cell viability at 0.5 to 128 uM incubated for 24 hrs by MTT assay; assay type: functional, cell-based; details: dose 0.5-128 µM
[8] = Cytotoxicity against differentiated human SH-SY5Y cells assessed as cell proliferation at 4 uM incubated for 24 hrs by MTT assay relative to control; assay type: toxicity, cell-based; details: read-out: Activity
[9] = Solubility of compound in DMSO; assay type: physicochemical
[10] = Solubility of compound in phosphate buffer; assay type: physicochemical
[11] = biological target: T2, Amine oxidase [flavin-containing] A; assay: Inhibition of human recombinant MAO-A using tyramine as substrate at 10 uM incubated for 20 mins by fluorometric assay relative to control
HCT-116 = assay: Antiproliferative activity against human HCT-116 cells assessed as reduction in cell viability incubated for 24 hrs by MTT assay; assay type: functional, cell-based; details: HCT-116, 24 h
HepG2 [12] = assay: Antiproliferative activity against human HepG2 cells assessed as reduction in cell viability incubated for 24 hrs by MTT assay; assay type: functional, cell-based; details: HepG2, 24 h
MGC-803 [13] = assay: Antiproliferative activity against human MGC-803 cells assessed as reduction in cell viability incubated for 24 hrs by MTT assay; assay type: functional, cell-based; details: MGC-803, 24 h
SH-SY5Y [14] = assay: Induction of ROS production in human SH-SY5Y cells assessed as increase in oxidative damage at 2 to 4 uM incubated for 24 hrs by DCFH-DA staining based fluorescence microscopic analysis; assay type: functional, cell-based; details: dose 2-4 µM
VSMC [15] = assay: Cytotoxicity against human VSMC cells assessed as reduction in cell viability at 0.5 uM incubated for 24 hrs by MTT assay relative to control; assay type: toxicity, cell-based
Homo sapiens = organism: Homo sapiens; assay: Selectivity index, ratio of IC50 for human recombinant MAO-A to IC50 for human recombinant MAO-B
[16] = Cytotoxicity against differentiated human SH-SY5Y cells assessed as cell proliferation at 0.5 uM incubated for 24 hrs by MTT assay relative to control; assay type: toxicity, cell-based; details: read-out: Activity

With `O=c1c(-c2cc(-c3ccccc3C(F)(F)F)no2)csc2ccccc12` the IC50 [1] was 0.002 µM, the IC50 [2] was 21.2 µM and the logD [3] was 4.37. For the same compound, the IC50 (MCF7) was 37.9 µM, the Activity (SH-SY5Y [4]) was under 90% and the Activity (VSMC [5]) was “Non-Toxic”. For the same compound, the Activity (HepG2 [6]) was “inactive”, the Activity (MGC-803 [7]) was “inactive” and the viability at 24 h, 4 µM [8] was 121%.
With `O=c1c(-c2cc(-c3cccc(Cl)c3)no2)csc2ccccc12` the solubility [9] was “Insoluble” and the solubility [10] was “Insoluble”.
In the case of `O=C1C(c2cc(-c3cccc(C(F)(F)F)c3)no2)=CS(=O)(=O)c2ccccc21`, the IC50 [1] is reported as 0.0019 µM, the logD [3] is reported as 3.39 and the inhibition at 10 µM [11] is reported as 10%. For the same compound, the IC50 (MCF7) was 5.82 µM, the IC50 (HCT-116) was 21.4 µM and the IC50 (HepG2 [12]) was 83.2 µM. For the same compound, the IC50 (MGC-803 [13]) was 39.6 µM, the Activity (SH-SY5Y [4]) was under 90% and the Activity (SH-SY5Y [14]) was “inactive”. For the same compound, the Activity (VSMC [15]) was 113% and the Activity (VSMC [5]) was “Non-Toxic”.
In the case of `O=C1C(c2cc(-c3ccc(Cl)cc3)no2)=CS(=O)(=O)c2ccccc21`, the IC50 [1] is reported as 0.0034 µM, the IC50 [2] is reported as 38.3 µM and the logD [3] is reported as 1.82. It also gave an IC50 (MCF7) of 3.77 µM, an IC50 (HCT-116) of 53.4 µM and an IC50 (HepG2 [12]) of 55.9 µM. For the same compound, the Activity (SH-SY5Y [4]) was under 90%, the Activity (VSMC [5]) was “Non-Toxic” and the Activity (MGC-803 [7]) was “inactive”.
In the case of `O=c1c(-c2cc(-c3cccc(F)c3)no2)csc2ccccc12`, the solubility [9] is reported as “Insoluble” and the solubility [10] is reported as “Insoluble”.
Compound `Cc1cccc(-c2cc(C3=CS(=O)(=O)c4ccccc4C3=O)on2)c1` has an IC50 [1] of 0.0982 µM and a logD [3] of 3.23.
Work on `Cc1ccc(-c2cc(C3=CS(=O)(=O)c4ccccc4C3=O)on2)cc1` yielded an IC50 [1] of 0.0268 µM and a logD [3] of 2.77.
In the case of `O=c1c(-c2cc(-c3ccccc3)no2)csc2ccccc12`, the IC50 [1] is reported as 1.23 µM and the logD [3] is reported as 3.72.
`O=c1c(-c2cc(-c3cccc(C(F)(F)F)c3)no2)csc2ccccc12` showed an IC50 [1] of 0.0351 µM, an IC50 [2] of 161 µM and a Ratio IC50 (Homo sapiens) of 4580. The logD [3] was 3.71.
With `O=C1C(c2cc(-c3ccccc3C(F)(F)F)no2)=CS(=O)(=O)c2ccccc21` the IC50 [1] was 0.0023 µM, the logD [3] was 2.63 and the inhibition at 10 µM [11] was 3.8%. For the same compound, the IC50 (MCF7) was 16 µM, the IC50 (HCT-116) was 52.1 µM and the IC50 (HepG2 [12]) was 99.3 µM. For the same compound, the IC50 (MGC-803 [13]) was 37.7 µM, the Activity (SH-SY5Y [4]) was under 90% and the viability at 24 h, 0.5 µM [16] was 108%. The Activity (VSMC [5]) was “Non-Toxic” and the viability at 24 h, 4 µM [8] was 119%.
For `Cc1cccc(-c2cc(-c3csc4ccccc4c3=O)on2)c1`, the IC50 [1] was 0.53 µM and the logD [3] was 3.44.
With `O=c1c(-c2cc(-c3ccc(C(F)(F)F)cc3)no2)csc2ccccc12` the IC50 [1] was 0.0113 µM, the IC50 [2] was 85.4 µM and the Ratio IC50 (Homo sapiens) was 7580. It also gave a logD [3] of 2.55.
With `O=c1c(-c2cc(-c3ccc(Cl)cc3)no2)csc2ccccc12` the solubility [9] was “Insoluble” and the solubility [10] was “Insoluble”.
For `Cc1ccc(-c2cc(-c3csc4ccccc4c3=O)on2)cc1`, the IC50 [1] was 0.0622 µM and the logD [3] was 3.2.
In the case of `O=C1C(c2cc(-c3cccc(F)c3)no2)=CS(=O)(=O)c2ccccc21`, the IC50 [1] is reported as 0.44 µM and the logD [3] is reported as 2.46.
